Data as given in patent publication EP3722296B1, “DIHYDRONAPHTHYRIDINES AND RELATED COMPOUNDS USEFUL AS KINASE INHIBITORS FOR THE TREATMENT OF PROLIFERATIVE DISEASES” (Deciphera Pharmaceuticals, LLC, priority 2012, dated 2013).

Legend:
Assay type in all cases: biochemical
[1] = biological target: T1, c-KIT D816V kinase (Homo sapiens, UniProt P10721, D816V); experiment: c-KIT D816V kinase Assay; settings: enzymatic assay, ATP 200 uM
T1 construct: residues T544-V976 with N-terminal GST fusion; purchased deCODE Biostructures
Method: (§1) In this assay, the oxidation of NADH (measured by decrease in absorbance at 340 nm) was continuously monitored spectrophotometrically. […] The inhibition reaction was started by mixing serial diluted test compound with the above reaction mixture. The absorption at 340 nm was monitored continuously for 5 hours at 30 °C on Synergy 2 plate reader (BioTech).
(§2) The protein construct was prepared by deCODE Biostructures using procedures known in the art. The construct contains residues T544-V976 of cKit, an N-terminal tag, a GST-fusion sequence and a TEV cleavage site. This construct is identical to Seq ID no.

[2] = biological target: T2, c-KIT T670I kinase (Homo sapiens, UniProt P10721, T670I); experiment: c-KIT T670I kinase assay; settings: enzymatic assay
T2 construct: The construct contains residues T544-V976 of cKit; GST (N); TEV cleavage site (internal); purchased deCODE Biostructures
Method: (§3) In this assay, the oxidation of NADH (measured by decrease in absorbance at 340 nm) was continuously monitored spectrophotometrically. […] The inhibition reaction was started by mixing serial diluted test compound with the above reaction mixture. The absorption at 340 nm was monitored continuously for 5 hours at 30 °C on Synergy 2 plate reader (BioTech). […] The protein construct was prepared by deCODE Biostructures using procedures known in the art. The construct contains […] of cKit, an N-terminal tag, a GST-fusion sequence and a TEV cleavage site. This construct is identical to Seq ID no. 1 except for the T670I mutation. [formula] [formula]

[3] = biological target: c-KIT kinase (Homo sapiens, UniProt P10721); experiment: c-KIT kinase Assay; parameters: cKIT residues T544-V976; GST (N); TEV cleavage site (internal); purchased deCODE Biostructures; settings: enzymatic assay, ATP 200 µM; read-out: KIT (wt) IC50
Method: In this assay, the oxidation of NADH (measured by decrease in absorbance at 340 nm) was continuously monitored spectrophotometrically. […] The absorption at 340 nm was monitored continuously for 2 hours at 30 °C on Synergy 2 (BioTeK). The reaction rate was calculated using the 0 to 1 h time frame. Percent inhibition was obtained by comparison of reaction rate with that of a control (i.e. with no test compound). IC50 values were calculated from a series of percent inhibition values determined at a range of inhibitor concentrations using software routines as implemented in the GraphPad Prism software package. The protein construct was prepared by deCODE Biostructures using procedures known in the art. The construct contains […] of cKit, an N-terminal tag, a GST-fusion sequence and a TEV cleavage site. [formula]

[4] = biological target: T3, c-KIT V654A kinase (Homo sapiens, UniProt P10721, V654A); experiment: c-KIT V654A Kinase Assay; settings: enzymatic assay, ATP 200 µM
T3 construct: residues T544-V976 with N-terminal GST fusion; purchased deCODE Biostructures
Method: as §1, with “6” for “5”
as §2

[5] = biological target: T4, c-KIT D816H kinase (Homo sapiens, UniProt P10721, D816H); experiment: c-KIT D816H Kinase Assay; settings: enzymatic assay, ATP 200 µM
T4 construct: The construct contains residues T544-V976 of cKit; GST (N); TEV cleavage site (internal); purchased deCODE Biostructures
Method: as §3, with “6” for “5”, “no.” for “no. 1 except for the T670I mutation. [formula] [formula]”

T4 sequence (P10721 544-976 D816H): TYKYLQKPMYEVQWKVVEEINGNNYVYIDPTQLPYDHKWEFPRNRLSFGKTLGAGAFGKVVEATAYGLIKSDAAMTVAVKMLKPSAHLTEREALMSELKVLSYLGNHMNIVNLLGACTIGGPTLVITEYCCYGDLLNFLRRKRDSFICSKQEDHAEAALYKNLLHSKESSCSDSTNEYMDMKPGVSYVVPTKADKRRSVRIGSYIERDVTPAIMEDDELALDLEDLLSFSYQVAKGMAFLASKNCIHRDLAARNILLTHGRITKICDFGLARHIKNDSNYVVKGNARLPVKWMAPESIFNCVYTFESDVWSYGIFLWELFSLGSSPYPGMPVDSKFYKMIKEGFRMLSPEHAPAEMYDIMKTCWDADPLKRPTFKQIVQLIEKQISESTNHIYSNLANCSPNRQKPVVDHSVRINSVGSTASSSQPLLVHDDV
T1 sequence (P10721 544-976 D816V): as the sequence (P10721 544-976 D816H) above, with H273V counted along it
T3 sequence (P10721 544-976 V654A): as the sequence (P10721 544-976 D816H) above, with V111A, H273D counted along it
T2 sequence (P10721 544-976 T670I): as the sequence (P10721 544-976 D816H) above, with T127I, H273D counted along it
Sequence of c-KIT kinase (P10721 544-976): as the sequence (P10721 544-976 D816H) above, with H273D counted along it

SMILES | IC50 [1] [nM] | IC50 [2] [nM] | IC50 [3] [nM] | IC50 [4] [nM] | IC50 [5] [nM]
CCn1c(=O)c(-c2cc(NC(=O)Nc3cccc(CN4CCN(C)CC4)c3)c(F)cc2C)cc2cnc(NC)cc21 [Example 82, 1-(5-(1-ethyl-7-(methylamino)-2-oxo-1,2-dihydro-1,6-naphthyridin-3-yl)-2-fluoro-4-methylphenyl)-3-(3-((4-methylpiperazin-1-yl)methyl)phenyl)urea] | 100 to 1000 | 100 to 1000 | 10 to 100 | – | –
CCn1c(=O)c(-c2cc(NC(=O)Nc3ccc(F)c(CN4CCN(C)CC4)c3)c(F)cc2C)cc2cnc(NC)cc21 [Example 89, 1-(5-(1-ethyl-7-(methylamino)-2-oxo-1,2-dihydro-1,6-naphthyridin-3-yl)-2-fluoro-4-methylphenyl)-3-(4-fluoro-3-((4-methylpiperazin-1-yl)methyl)phenyl)urea] | 100 to 1000 | 10 to 100 | 10 to 100 | 100 to 1000 | 10 to 100
CCn1c(=O)c(-c2cc(NC(=O)Nc3ccccc3)c(F)cc2Cl)cc2cnc(NC(=O)COC)cc21 [Example 74, N-(3-(2-chloro-4-fluoro-5-(3-phenylureido)phenyl)-1-ethyl-2-oxo-1,2-dihydro-1,6-naphthyridin-7-yl)-2-methoxyacetamide] | < 10 | 10 to 100 | < 10 | – | –
CCn1c(=O)c(-c2cc(NC(=O)Nc3cccc(F)c3)c(F)cc2C)cc2cnc(NC(C)=O)cc21 [Example 78, N-(1-ethyl-3-(4-fluoro-5-(3-(3-fluorophenyl)ureido)-2-methylphenyl)-2-oxo-1,2-dihydro-1,6-naphthyridin-7-yl)acetamide] | 10 to 100 | 10 to 100 | < 10 | – | –
CCn1c(=O)c(-c2cc(NC(=O)Nc3cccc(CN4CCN(C)CC4)c3)c(F)cc2Br)cc2cnc(NC)cc21 [Example 83, 1-(4-bromo-5-(1-ethyl-7-(methylamino)-2-oxo-1,2-dihydro-1,6-naphthyridin-3-yl)-2-fluorophenyl)-3-(3-((4-methylpiperazin-1-yl)methyl)phenyl)urea] | 100 to 1000 | 100 to 1000 | < 10 | – | –
CCn1c(=O)c(-c2cc(NC(=O)Nc3ccc(F)c(CN4CCN(C)CC4)c3)c(F)cc2F)cc2cnc(NC)cc21 [Example 90, 1-(5-(1-ethyl-7-(methylamino)-2-oxo-1,2-dihydro-1,6-naphthyridin-3-yl)-2,4-difluorophenyl)-3-(4-fluoro-3-((4-methylpiperazin-1-yl)methyl)phenyl)urea] | > 1000 | 10 to 100 | < 10 | – | 10 to 100
CCn1c(=O)c(-c2cc(NC(=O)Nc3ccccc3)c(F)cc2I)cc2cnc(NC)cc21 [Example 114, 1-(5-(1-ethyl-7-(methylamino)-2-oxo-1,2-dihydro-1,6-naphthyridin-3-yl)-2-fluoro-4-iodophenyl)-3-phenylurea] | 100 to 1000 | > 1000 | 10 to 100 | – | –
CCn1c(=O)c(-c2cc(NC(=O)Nc3ccccc3)c(F)cc2Cl)cc2cnc(NC(=O)CC#N)cc21 [Example 65, N-(3-(2-chloro-4-fluoro-5-(3-phenylureido)phenyl)-1-ethyl-2-oxo-1,2-dihydro-1,6-naphthyridin-7-yl)-2-cyanoacetamide] | 10 to 100 | 10 to 100 | < 10 | – | –
CNc1cc2c(cn1)cc(-c1cc(NC(=O)Nc3ccccc3)c(F)cc1Br)c(=O)n2C [Example 56, 1-(4-bromo-2-fluoro-5-(1-methyl-7-(methylamino)-2-oxo-1,2-dihydro-1,6-naphthyridin-3-yl)phenyl)-3-phenylurea] | 10 to 100 | 100 to 1000 | < 10 | – | –
CCn1c(=O)c(-c2cc(NC(=O)Nc3cc(F)cc(Cl)c3)c(F)cc2Cl)cc2cnc(NC)cc21 [Example 71, 1-(4-chloro-5-(1-ethyl-7-(methylamino)-2-oxo-1,2-dihydro-1,6-naphthyridin-3-yl)-2-fluorophenyl)-3-(3-chloro-5-fluorophenyl)urea] | 100 to 1000 | 10 to 100 | 10 to 100 | 10 to 100 | –
CCn1c(=O)c(-c2cc(NC(=O)Nc3ccccc3)c(F)cc2Cl)cc2cnc(N[C@@H](C)COC)cc21 [Example 43, (S)-1-(4-chloro-5-(1-ethyl-7-(1-methoxypropan-2-ylamino)-2-oxo-1,2-dihydro-1,6-naphthyridin-3-yl)-2-fluorophenyl)-3-phenylurea] | 100 to 1000 | 100 to 1000 | 10 to 100 | – | –
CCn1c(=O)c(-c2cc(NC(=O)Nc3cc(C)cc(F)c3)c(F)cc2Cl)cc2cnc(NC)cc21 [Example 72, 1-(4-chloro-5-(1-ethyl-7-(methylamino)-2-oxo-1,2-dihydro-1,6-naphthyridin-3-yl)-2-fluorophenyl)-3-(3-fluoro-5-methylphenyl)urea] | 10 to 100 | < 10 | < 10 | 100 to 1000 | –
CCn1c(=O)c(-c2cc(NC(=O)Nc3cc(F)ccc3F)c(F)cc2F)cc2cnc(NC)cc21 [Example 62, 1-(2,5-difluorophenyl)-3-(5-(1-ethyl-7-(methylamino)-2-oxo-1,2-dihydro-1,6-naphthyridin-3-yl)-2,4-difluorophenyl)urea] | 100 to 1000 | < 10 | < 10 | – | –
CCn1c(=O)c(-c2cc(NC(=O)Nc3ccccc3)c(F)cc2C)cc2cnc(NC(C)=O)cc21 [Example 80, N-(1-ethyl-3-(4-fluoro-2-methyl-5-(3-phenylureido)phenyl)-2-oxo-1,2-dihydro-1,6-naphthyridin-7-yl)acetamide] | 10 to 100 | 10 to 100 | < 10 | – | < 10
CCn1c(=O)c(-c2cc(NC(=O)Nc3cc(F)cc(Cl)c3)c(F)cc2C)cc2cnc(NC)cc21 [Example 69, 1-(3-chloro-5-fluorophenyl)-3-(5-(1-ethyl-7-(methylamino)-2-oxo-1,2-dihydro-1,6-naphthyridin-3-yl)-2-fluoro-4-methylphenyl)urea] | 100 to 1000 | 10 to 100 | 10 to 100 | 10 to 100 | –
CCn1c(=O)c(-c2cc(NC(=O)Nc3ccccc3)c(F)cc2Br)cc2cnc(NC(=O)CC#N)cc21 [Example 64, N-(3-(2-bromo-4-fluoro-5-(3-phenylureido)phenyl)-1-ethyl-2-oxo-1,2-dihydro-1,6-naphthyridin-7-yl)-2-cyanoacetamide] | 100 to 1000 | 100 to 1000 | 10 to 100 | – | –
CCn1c(=O)c(-c2cc(NC(=O)Nc3ccccc3)c(F)cc2F)cc2cnc(NC(=O)N(C)C)cc21 [Example 112, 3-(3-(2,4-difluoro-5-(3-phenylureido)phenyl)-1-ethyl-2-oxo-1,2-dihydro-1,6-naphthyridin-7-yl)-1,1-dimethylurea] | 10 to 100 | < 10 | < 10 | – | < 10
CCn1c(=O)c(-c2cc(NC(=O)Nc3ccccc3)c(F)cc2Cl)cc2cnc(NCCN(C)C)cc21 [Example 29, 1-(4-chloro-5-(7-(2-(dimethylamino)ethylamino)-1-ethyl-2-oxo-1,2-dihydro-1,6-naphthyridin-3-yl)-2-fluorophenyl)-3-phenylurea] | 100 to 1000 | 100 to 1000 | 10 to 100 | – | –
CNc1cc2c(cn1)cc(-c1cc(NC(=O)Nc3cccc(C#N)c3)ccc1Cl)c(=O)n2C [Example 11, 1-(4-chloro-3-(1-methyl-7-(methylamino)-2-oxo-1,2-dihydro-1,6-naphthyridin-3-yl)phenyl)-3-(3-cyanophenyl)urea] | > 1000 | – | – | – | –
